# According to PMC7906907, “Targeting STAT3 by a small molecule suppresses pancreatic cancer progression” (Oncogene, 2021):
# Experiments:
# normal cells (HPNE, HAF) = assay: MTS proliferation assay, normal cells; type: cell-based; conditions: 48 h
# Description: Fig. 4 N4 suppresses pancreatic cancer cell proliferation and migration and induces apoptosis. A Pancreatic cancer cells (CAPAN-2, PANC-1, MIAPACA-2, BXPC-3, HPAC, and CFPAC-1) and normal cells (HPNE, HAF) were incubated with the indicated concentration of N4 for 48 h. MTS assays were performed to detect the N4-mediated inhibition of cell proliferation. Data are shown as mean ± SD, *P < 0.05, **P < 0.01, ***P < 0.001, ****P < 0.0001, n.s. not significant by one-way ANOVA followed by multiple comparisons. B, C CAPAN-2, PANC-1, and MIAPACA-2 cells were treated with N4 (B) or C188-9 (C) for 7 days. The cells fixed and stained, and colony numbers were calculated. Experiments were carried out in triplicate with identical results obtained. […] Apoptotic cells were analyzed as described in Materials and Methods. […] In F, after 48 h transfection, transfected cells were seeded in 96-well plates, and cells were enumerated at day 1, day 2, and day 4, In G, different cells transfected with different siRNA were treated with the indicated concentrations of N4, and cell viability measured after a 48 h treatment. Data are expressed as mean ± SD, *P < 0.05, ***P < 0.001, n.s. not significant by one-way ANOVA followed by multiple comparisons. […] Data are expressed as mean ± SD, *P < 0.05, ***P < 0.001, n.s. not significant; Student’s t tests were performed. […]
# Pan02 cells = assay: EMT markers by immunofluorescence and western blot; type: cell-based; conditions: IF and WB, 24 h
# Description: Fig. 8 N4 reverses EMT phenotype and shapes the microenvironment of PDAC. A IF staining was performed to detected the level of E-cadherin (red) and vimentin (green) after PAN02 treatment with the indicated concentrations of N4 for 24 h. DAPI (blue) was used to stain Nuclei. Scale bar, 20 μm. B Western blot assays were used to examine the expression of E-cadherin, N-cadherin and vimentin after PAN02 treatment with N4 for 24 h. C IHC of vimentin, F4/80 and α-SMA in tumor tissue from orthotopic models. Data represents the mean ± SD; *P < 0.05, **P < 0.01, ***P < 0.001, ****P < 0.0001, n.s. not significant by one-way ANOVA followed by multiple-comparison tests. D Quantification of vimentin, F4/80 and α-SMA in pancreatic tumors from PDAC. Scale bar, 50 μm.
# Western blotting was performed as previously described. Briefly, cells were treated with indicated compounds and then lysed by boiling. […]
# Immunofluorescence staining was performed as previously described. […] Images were recorded by confocal microscopy (Leica).
structure (smiles),measurement,setting,value
COc1cc2c(cc1C(=O)Nc1cccc3cccnc13)CCC1C(C)(C)C(=O)C(C#N)=C[C@]21C (some centres unmarked) [N4],effect on two normal cell types,"normal cells (HPNE, HAF)",no significant effect
same,epithelial and mesenchymal markers,Pan02 cells,"upregulation of E-cadherin, and downregulation of N-cadherin and vimentin"
